Test results taken from the NIST ThermoML archive (doi:10.1021/je200659c).
Numbers after ± are expanded uncertainties.

Columns and labels:
[1] = xn = mol fraction of the nth substance listed; settings: Maximal bubble pressure
[2] = Maximal bubble pressure

O [water] + CCCCCCn1cc[n+](C)c1.[Cl-]
Settings	surface tension liquid-gas [mN/m]
[1], 297.7 K, x2 = 0	70.9 ± 0.5

O [water] + CCn1cc[n+](C)c1.CS(=O)(=O)[O-]
[1], x2 = 0
Settings	surface tension liquid-gas [mN/m]
300 K	71.6 ± 1.1
301.2 K	71.4 ± 0.7

O [water] + COS(=O)(=O)[O-].Cn1cc[n+](C)c1
Settings	surface tension liquid-gas [mN/m]
[1], 296.8 K, x2 = 0	71.1 ± 0.6

CCCCCCn1cc[n+](C)c1.[Cl-] [1-hexyl-3-methylimidazolium chloride] + O
[1]
Settings	surface tension liquid-gas [mN/m]
297.2 K, x1 = 0.003	61.8 ± 0.4
297.4 K, x1 = 0.009	55.2 ± 0.4
297.4 K, x1 = 0.02	50.5 ± 0.7
297.6 K, x1 = 0.045	47.6 ± 0.8
297.7 K, x1 = 0.013	52.8 ± 1
297.8 K, x1 = 0.073	46 ± 0.3
297.9 K, x1 = 0.121	43.8 ± 0.3
298 K, x1 = 0.092	45 ± 0.3
298.2 K, x1 = 0.143	43.2 ± 0.3

O [water] + CCCCn1cc[n+](C)c1.CS(=O)(=O)[O-]
[1], x2 = 0
Settings	surface tension liquid-gas [mN/m]
297 K	71.9 ± 2.8
304.3 K	70.7 ± 0.6
312.4 K	69.4 ± 0.5
321.3 K	68.1 ± 1.4

O [water]
[2]
Settings	surface tension liquid-gas [mN/m]
296.8 K	71.1 ± 0.6
297 K	71.9 ± 2.8
297.7 K	70.9 ± 0.5
300 K	71.6 ± 1.1
301.2 K	71.4 ± 0.7
304.3 K	70.7 ± 0.6
312.4 K	69.4 ± 0.5
321.3 K	68.1 ± 1.4

COS(=O)(=O)[O-].Cn1cc[n+](C)c1 [1,3-dimethylimidazolium methylsulfate] + O
[1]
Settings	surface tension liquid-gas [mN/m]
297 K, x1 = 0.008	70.6 ± 0.4
297.1 K, x1 = 0.025	69.5 ± 0.5
297.3 K, x1 = 0.055	68.2 ± 0.6
297.6 K, x1 = 0.093	67.3 ± 0.7
297.6 K, x1 = 0.141	66.4 ± 0.8
297.7 K, x1 = 0.183	65.7 ± 0.6
298 K, x1 = 0.222	65.3 ± 0.6
298.1 K, x1 = 0.261	64.7 ± 1.3
298.1 K, x1 = 0.292	64.7 ± 1.1

CCn1cc[n+](C)c1.CS(=O)(=O)[O-] [1-ethyl-3-methylimidazolium methanesulfonate] + O
[1]
Settings	surface tension liquid-gas [mN/m]
300 K, x1 = 0.002	72.1 ± 1.1
300 K, x1 = 0.03	69.8 ± 1
300.1 K, x1 = 0.025	70.4 ± 0.7
300.2 K, x1 = 0.004	71.6 ± 1.1
300.2 K, x1 = 0.006	71.4 ± 0.7
300.3 K, x1 = 0.01	71.1 ± 0.6
300.4 K, x1 = 0.015	70.7 ± 0.7
300.4 K, x1 = 0.019	70.5 ± 0.6
301 K, x1 = 0.065	67.9 ± 1.1
301.2 K, x1 = 0.274	60.7 ± 0.8
301.3 K, x1 = 0.002	71.4 ± 0.6
301.3 K, x1 = 0.004	70.9 ± 0.7
301.3 K, x1 = 0.007	70.4 ± 0.7
301.3 K, x1 = 0.013	69.8 ± 0.7
301.3 K, x1 = 0.019	69.2 ± 0.8
301.3 K, x1 = 0.026	68.8 ± 0.8
301.3 K, x1 = 0.032	68.4 ± 0.8
301.3 K, x1 = 0.376	59.2 ± 0.5
301.4 K, x1 = 0.01	70.1 ± 0.7
301.7 K, x1 = 0.112	65.6 ± 0.7
301.7 K, x1 = 0.485	58.1 ± 0.5
302.4 K, x1 = 0.08	66 ± 0.8
302.7 K, x1 = 0.133	63.5 ± 0.8
302.7 K, x1 = 0.181	62.9 ± 2.1
302.9 K, x1 = 0.199	61.2 ± 1.8
303.2 K, x1 = 0.474	57.3 ± 0.6
303.3 K, x1 = 0.388	57.7 ± 0.7
303.8 K, x1 = 0.284	58.7 ± 1.5

CCCCn1cc[n+](C)c1.CS(=O)(=O)[O-] [1-butyl-3-methylimidazolium methanesulfonate] + O
[1]
Settings	surface tension liquid-gas [mN/m]
297.5 K, x1 = 0.004	65.1 ± 0.7
297.7 K, x1 = 0.014	62.9 ± 0.7
297.8 K, x1 = 0.026	59.6 ± 0.7
297.8 K, x1 = 0.064	53.6 ± 1.2
298 K, x1 = 0.115	50.3 ± 0.7
298 K, x1 = 0.256	45.9 ± 0.5
298.2 K, x1 = 0.173	48.2 ± 0.7
298.2 K, x1 = 0.24	46.7 ± 0.7
298.2 K, x1 = 0.291	45.1 ± 0.3
304.7 K, x1 = 0.005	66.3 ± 0.5
304.8 K, x1 = 0.177	47.9 ± 0.7
304.9 K, x1 = 0.011	63.5 ± 0.5
305.1 K, x1 = 0.109	50.8 ± 0.9
305.1 K, x1 = 0.141	49.5 ± 0.4
305.1 K, x1 = 0.16	48.5 ± 0.5
305.2 K, x1 = 0.017	61.3 ± 0.5
305.2 K, x1 = 0.08	52.4 ± 1.6
305.3 K, x1 = 0.052	55.3 ± 0.5
305.4 K, x1 = 0.027	59.2 ± 0.5
312.2 K, x1 = 0.092	51.4 ± 0.5
312.2 K, x1 = 0.184	47.8 ± 1
312.3 K, x1 = 0.145	49.4 ± 1
312.4 K, x1 = 0.069	53.2 ± 0.5
312.6 K, x1 = 0.005	65.3 ± 0.5
312.6 K, x1 = 0.019	60.3 ± 1.1
312.8 K, x1 = 0.01	62.9 ± 0.5
312.8 K, x1 = 0.041	56.3 ± 1.8
318.1 K, x1 = 0.339	44.2 ± 0.5
318.3 K, x1 = 0.259	45.5 ± 1
318.7 K, x1 = 0.165	47.7 ± 0.7
320.1 K, x1 = 0.034	56.1 ± 0.7
320.1 K, x1 = 0.083	51.4 ± 0.4
320.8 K, x1 = 0.023	58.2 ± 0.7
321.3 K, x1 = 0.013	61 ± 0.9
321.8 K, x1 = 0.004	64.8 ± 1.4
